The source of these data is ChEMBL document CHEMBL1133545, “Inhibition of monoamine oxidases by functionalized coumarin derivatives: biological activities, QSARs, and 3D-QSARs” (J Med Chem, 2000).

A word on the IC50: it is the concentration at which inhibition is half-maximal. A high value points to a need for much substance. As a reminder, the inhibition is the share of the control response that was lost under treatment. Read a high inhibition as a response far below the control.

Test [1] has as its target T1, Amine oxidase [flavin-containing] B (Rattus norvegicus, UniProt P19643).
T1 sequence (P19643 whole entry): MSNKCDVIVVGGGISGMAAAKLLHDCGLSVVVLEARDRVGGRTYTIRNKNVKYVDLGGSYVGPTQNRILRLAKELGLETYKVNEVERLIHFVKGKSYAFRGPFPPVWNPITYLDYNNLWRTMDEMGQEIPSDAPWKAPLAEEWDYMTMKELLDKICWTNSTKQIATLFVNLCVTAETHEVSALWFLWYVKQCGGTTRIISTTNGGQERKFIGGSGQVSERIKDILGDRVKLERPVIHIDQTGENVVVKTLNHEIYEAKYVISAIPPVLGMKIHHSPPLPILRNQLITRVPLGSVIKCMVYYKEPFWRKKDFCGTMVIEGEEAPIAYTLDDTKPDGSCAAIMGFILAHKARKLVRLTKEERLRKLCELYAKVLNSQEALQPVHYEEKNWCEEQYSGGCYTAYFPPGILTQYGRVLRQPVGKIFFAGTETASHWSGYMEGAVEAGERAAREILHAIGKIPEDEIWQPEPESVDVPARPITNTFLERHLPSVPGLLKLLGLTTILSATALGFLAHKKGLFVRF

Test [2] deals with T2, Amine oxidase [flavin-containing] A (Rattus norvegicus, UniProt P21396).
T2 sequence (P21396 whole entry): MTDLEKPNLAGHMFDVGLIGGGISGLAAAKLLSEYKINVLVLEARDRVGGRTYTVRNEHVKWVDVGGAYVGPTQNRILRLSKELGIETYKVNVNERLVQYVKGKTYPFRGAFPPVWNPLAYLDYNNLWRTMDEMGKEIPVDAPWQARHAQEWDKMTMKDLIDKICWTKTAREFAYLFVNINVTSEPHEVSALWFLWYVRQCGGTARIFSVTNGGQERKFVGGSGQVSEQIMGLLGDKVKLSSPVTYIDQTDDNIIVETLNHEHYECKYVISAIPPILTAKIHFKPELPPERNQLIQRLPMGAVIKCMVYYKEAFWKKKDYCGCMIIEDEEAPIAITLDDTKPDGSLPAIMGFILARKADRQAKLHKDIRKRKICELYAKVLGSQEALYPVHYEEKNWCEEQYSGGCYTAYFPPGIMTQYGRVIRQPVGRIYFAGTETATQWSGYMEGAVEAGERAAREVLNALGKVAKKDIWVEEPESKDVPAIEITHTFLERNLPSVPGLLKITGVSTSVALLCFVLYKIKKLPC

In test [3] the target is T2, Amine oxidase [flavin-containing] A. The source holds these as a separate data set.
Description: Compound was tested for its inhibitory effect on Monoamine oxidase A at 2 uM
Test [4] concerns the target T1, Amine oxidase [flavin-containing] B. The source holds these as a separate data set.
Description: Compound was tested for its inhibitory effect on MAO-B ( Monoamine Oxidase) at 4 uM
Test [5] concerns the target T2, Amine oxidase [flavin-containing] A. This is another data set of the same source.
Description: Compound was tested for its inhibitory effect on Monoamine oxidase A at 15 uM
Test [6] shares this target. This is another data set of the same source.
Description: Compound was tested for its inhibitory effect on Monoamine oxidase A at 30 uM
Test [7] concerns the target T1, Amine oxidase [flavin-containing] B. This is another data set of the same source.
Description: (§1) Compound was tested for its inhibitory effect on MAO-B ( Monoamine Oxidase) at 100 uM
The target in test [8] is T2, Amine oxidase [flavin-containing] A. This is another data set of the same source.
Description: (§2) Compound was tested for its inhibitory effect on MAO-A ( Monoamine Oxidase) at 100 uM
For test [9] the target is unchanged. The source holds these as a separate data set.
Description: Compound was tested for its inhibitory effect on Monoamine oxidase A at 8 uM
Test [10] has as its target T1, Amine oxidase [flavin-containing] B. The source holds these as a separate data set.
Test [11] concerns the target T2, Amine oxidase [flavin-containing] A. This is another data set of the same source.
Description: Compound was tested for its inhibitory effect on Monoamine oxidase A at 1 uM
Test [12] concerns the target T1, Amine oxidase [flavin-containing] B. This is another data set of the same source.
Description: (§3) Compound was tested for its inhibitory effect on Monoamine oxidase B at 3 uM
The target in test [13] is T2, Amine oxidase [flavin-containing] A. This is another data set of the same source.
Description: Compound was tested for its inhibitory effect on Monoamine oxidase A at 50 uM
The target is the same in test [14]. This is another data set of the same source.
Description: Compound was tested for its inhibitory effect on MAO-A ( Monoamine Oxidase) at 50 uM
Test [15] has the same target. This is another data set of the same source.
Description: Compound was tested for its inhibitory effect on Monoamine oxidase A at 5 uM
Test [16] addresses T1, Amine oxidase [flavin-containing] B. The source holds these as a separate data set.
Description: Compound was tested for its inhibitory effect on Monoamine oxidase B at 40 uM
In test [17] the target is T2, Amine oxidase [flavin-containing] A. This is another data set of the same source.
Description: Compound was tested for its inhibitory effect on Monoamine oxidase A at 20 uM)
In test [18] the target is T1, Amine oxidase [flavin-containing] B. This is another data set of the same source.
Description: as §3
For test [19], the target named is T2, Amine oxidase [flavin-containing] A. The source holds these as a separate data set.
Description: Compound was tested for its inhibitory effect on Monoamine oxidase A at 3 uM
Test [20] concerns the target T1, Amine oxidase [flavin-containing] B. This is another data set of the same source.
Description: as §1
Test [21] addresses T2, Amine oxidase [flavin-containing] A. The source holds these as a separate data set.
Description: as §2

For `O=c1ccoc2ccc(OCc3ccccc3)cc12`, the IC50 in test [1] was 562 nM; in [2], 6760 nM.
On to `CC1C(=O)Nc2cc(OCc3ccccc3)ccc2C1C` (centres undefined), for which half-maximal inhibition in test [1] (IC50) was put at 631 nM. Besides, 2 µM produced 0% inhibition in test [3].
For the compound `O=C1CCc2ccc(OCc3ccccc3)cc2N1`, the IC50 in test [1] was 1050 nM; in [2], 102000 nM.
`O=C1CCc2ccc(OCc3ccccc3)cc2O1` came in with an inhibition at 4 µM in test [4] of 20%.
As to `Cc1c(C)c2ccc(OC(C)c3ccccc3)cc2oc1=O` (centres undefined), the values for the IC50 in test [1] and in test [2] were 324 nM and 3550 nM, respectively.
Take `O=c1cc(O)c2ccc(OCc3ccccc3)cc2o1`: the inhibition at 15 µM in test [5] turned out to be 26%. For the same compound, in [1], the IC50 was 1580 nM.
Consider `c1ccc(COc2ccc3c(c2)OCO3)cc1`, for which testing at 30 µM in test [6] gave an inhibition of 18%. Besides, in test [1], the IC50 was 2400 nM.
Consider `Cc1c(C)c2ccc(OCc3cccc(N)c3)cc2oc1=O`, for which the IC50 is 34.7 nM in [1] and 1000 nM in test [2].
For the compound `O=c1ccc2cc(O[C@H]3O[C@H](CO)[C@@H](O)[C@@H](O)[C@@H]3O)c(OCc3ccccc3)cc2o1`, the figures for the inhibition at 100 µM in test [7] and in test [8] were 11% and 15%, respectively.
Regarding `c1ccc(COc2ccc3ccccc3c2)cc1`, in test [9], at 8 µM the inhibition was 0%. Also, the IC50 in [1] is 2570 nM.
With `O=C1OCc2ccc(OCc3ccccc3)cc21`, the IC50 in test [1] is 234 nM; in test [2], 3630 nM.
The corresponding values for `Cc1c(C)c2ccc(/C=C/c3ccccc3)cc2oc1=O` are 28.2 nM and 407 nM.
Turning to `O=c1cc(-c2ccccc2)oc2cc(OCc3ccccc3)ccc12`, the inhibition at 1 µM in test [10] and in test [11] was 6% throughout.
As to `c1ccc(COc2ccc3c(c2)OCC3)cc1`, the 50% inhibitory concentration (IC50) in [1] is 501 nM; in test [2] it was 39800 nM.
The corresponding values for `Cc1cc(=O)c2cc(OCc3ccccc3)ccc2o1` are 126 nM and 21900 nM.
`CC(=O)Nc1cccc(COc2ccc3c(C)c(C)c(=O)oc3c2)c1`: the IC50 in test [2] is 7080 nM. In other words, the single-digit micromolar range.
As to `O=c1ccc2ccccc2o1` [COUMARIN], the values for the IC50 in [1] and in [2] were 12000 nM and 40700 nM, respectively.
As for `O=c1cc(-c2ccccc2)oc2ccc(OCc3ccccc3)cc12`, in test [12], the inhibition at 3 µM is 38%.
The compound `Cc1c(C)c2ccc(OCCc3ccccc3)cc2oc1=O` gave an IC50 in [2] of 1000 nM.
Consider `c1ccc(COc2ccc3ccoc3c2)cc1`, for which the IC50 in [1] was 1820 nM. This compound also returned an inhibition at 50 µM in test [13] of 30%.
Take `Cc1c(C)c2ccc(OCc3ccc(F)c(O)c3)cc2oc1=O`: the figures for the IC50 in [1] and in [2] were 7.41 nM and 115 nM, respectively.
Turning to `COc1cc2ccc(=O)oc2cc1OCc1ccccc1`, 50 µM produced 18% inhibition in [14]. Also, half-maximal inhibition in [1] (IC50) required 6760 nM.
In test [15], `O=C1NC(=O)c2cc(OCc3ccccc3)ccc21` returned an inhibition at 5 µM of 25%.
On to `O=c1cc(C(F)(F)F)c2ccc(OCc3ccccc3)cc2o1`, for which 1380 nM corresponded to half-maximal inhibition in test [1] (IC50).
With `O=c1ccoc2cc(OCc3ccccc3)ccc12`, the IC50 in test [1] is 1050 nM; in test [2], 16200 nM.
Turning to `Cc1ccc(S(=O)(=O)Nc2ccc3c(C)c(C)c(=O)oc3c2)cc1`, the inhibition at 40 µM in [16] is 29%. In [2], this compound had an IC50 of 67600 nM.
Take `O=c1oc2cc(OCc3ccccc3)ccc2s1`: the inhibition at 20 µM in test [17] is 0%. In test [1], this compound showed an IC50 of 58900 nM.
With `Cc1c(-c2ccccc2)c(=O)oc2cc(OCc3ccccc3)ccc12`, the inhibition at 3 µM in test [18] was determined as 8%; in test [19], 4%.
`O=c1ccc2cc(O[C@@H]3O[C@H](CO)[C@@H](O)[C@H](O)[C@H]3O)c(O)cc2o1` [ESCULIN]: the inhibition at 100 µM in test [20] is 7%; in [21], 9%.
On to `O=c1ccc2cc(OCc3ccccc3)c(O)cc2o1`, for which the IC50 in test [1] is 2040 nM; in test [2], 23400 nM.
